Reference: US8632767B2, “3-[1-(3-haloalkyl)triazolyl]phenyl sulphide derivatives as acaricides and insecticides” (Bayer Intellectual Property GmbH, priority 2009, dated 2014)

Experiments:
[1] = log P by HPLC on reversed-phase C18, LC-MS, pH 2.7, formic acid (HCOOH); format: physicochemical; conditions: reversed-phase C18 HPLC column; HPLC C18, pH 2.7, 0.1% aqueous formic acid/acetonitrile
Protocol: The log P values reported in the table above and in the preparation examples were determined in accordance with EEC Directive 79/831 Annex V.A8 by HPLC (High Performance Liquid Chromatography) on reversed-phase columns (C18), with the following methods: ^[b] The determination is made by LC-MS in the acid range at pH 2.7 with 0.1% aqueous formic acid and acetonitrile (containing 0.1% formic acid) as eluents; linear gradient from 10% acetonitrile to 95% acetonitrile. Calibration took place with unbranched alkan-2-ones (having 3 to 16 carbon atoms) of known log P values (log P values determined from the retention times by linear interpolation between two successive alkanones).

[2] = test system: greenhouse red spidermite (Tetranychus urticae); test: Tetranychus test; OP resistant (TETRUR spray treatment), Example 3; format: in vivo; conditions: foliar, 144 h, spray on bean leaf discs, after 6 days, read-out: effect (mites killed)
Protocol: Solvents: 78.0 parts by weight of acetone • • 1.5 parts by weight of dimethylformamide Emulsifier: 0.5 part by weight of alkylaryl polyglycol ether An appropriate preparation of active compound is prepared by mixing 1 part by weight of active compound with the stated amounts of solvent and emulsifier and diluting the concentrate with emulsifier-containing water to the desired concentration. Leaf discs of bean (Phaseolus vulgaris) infested by all stages of the greenhouse red spidermite (Tetranychus urticae) are sprayed with a preparation of active compound at the desired concentration. After 6 days, the effect in % is determined. Here, 100% means that all of the mites have been killed; 0% means that no mites have been killed.

Boophilus microplus = Boophilus microplus test (BOOPMI injection); format: in vivo; conditions: Rhipicephalus microplus, 168 h; 20 μg/animal, injection into abdomen, after 7 days; read-out: activity (no fertile eggs laid)
Protocol: Solvent: Dimethyl Sulphoxide An appropriate preparation of active compound is prepared by mixing 10 mg of active compound with 0.5 ml of solvent and diluting the concentrate with solvent to the desired concentration. The solution of active compound is injected into the abdomen (Boophilus microplus) and the animals are transferred into dishes and kept in a controlled atmosphere. The activity is assessed on the basis of deposition of fertile eggs. After 7 days, the effect in % is determined. Here, 100% means that none of the ticks has laid fertile eggs.

[3] = test system: larvae of the mustard beetle (Phaedon cochleariae); test: Phaedon test (PHAECO spray treatment); format: in vivo; conditions: foliar, 168 h, spray on Chinese cabbage leaf discs, after 7 days, read-out: effect (beetle larvae killed)
Protocol: Solvents: 78.0 parts by weight of acetone • • 1.5 parts by weight of dimethylformamide Emulsifier: 0.5 part by weight of alkylaryl polyglycol ether An appropriate preparation of active compound is prepared by mixing 1 part by weight of active compound with the stated amounts of solvent and emulsifier and diluting the concentrate with emulsifier-containing water to the desired concentration. Leaf discs of Chinese cabbage (Brassica pekinensis) are sprayed with a preparation of active compound at the desired concentration and, after they have dried, are populated with larvae of the mustard beetle (Phaedon cochleariae). After 7 days, the effect in % is determined. Here, 100% means that all of the beetle larvae have been killed; 0% means that no beetle larvae have been killed.

Structure (SMILES)	chromatographic logP [1]	pest or weed control at 500 g/ha [2] [%]	pest or weed control at 100 g/ha [2] [%]	pest or weed control at 0.02 mg (Boophilus microplus) [%]	pest or weed control at 500 g/ha [3] [%]
Cc1cc(C)c(-n2cnc(C(F)(F)C(F)F)n2)cc1SSc1cc(-n2cnc(C(F)(F)C(F)F)n2)c(C)cc1C [II-A-5]	5.22	–	–	–	–
Cc1ccc(-n2cnc(C(F)(F)C(F)F)n2)c(C)c1 [IV-A-6]	3.08	–	–	–	–
Cc1ccc(-n2cnc(C(F)(F)C(F)(F)Cl)n2)c(C)c1 [IV-A-1]	3.88	–	–	–	–
Cc1cc(F)c(-n2cnc(C(F)F)n2)cc1SCC#N [I-A-24]	2.31	100	–	–	–
Cc1ccc(N/N=C(\N)C(F)(F)C(F)(F)F)c(C)c1 [X-2]	3.65	–	–	–	–
Cc1cc(Cl)c(-n2cnc(C(F)F)n2)cc1SSc1cc(-n2cnc(C(F)F)n2)c(Cl)cc1C [II-A-3]	4.53	–	–	–	–
Cc1cc(C)c(-n2cnc(C(F)(F)C(F)(F)F)n2)cc1SCC(F)F [I-A-7]	4.22	–	100	100	–
Cc1cc(C)c(-n2cnc(C(F)(F)C(F)(F)F)n2)cc1SSc1cc(-n2cnc(C(F)(F)C(F)(F)F)n2)c(C)cc1C [II-A-4]	6.36	–	–	–	–
Cc1cc(F)c(-n2cnc(C(F)F)n2)cc1SCC1CC1 [I-A-31]	3.81	–	100	–	100
Cc1ccc(NNC(=O)C(F)F)c(F)c1 [V-5]	1.66	–	–	–	–
Cc1ccc(NNC(=O)C(F)(F)C(F)(F)F)c(C)c1 [V-2]	2.91	–	–	–	–
Cc1cc(C)c([S+]([O-])CC(C)C)cc1-n1cnc(C(F)(F)C(F)(F)F)n1 (stereo not shown) [I-A-39]	3.46	–	100	100	–
N/C(=N\Nc1ccc(F)cc1)C(F)F [X-3]	1.34	–	–	–	–
Cc1cc(F)c(-n2cnc(C(F)F)n2)cc1SCC(F)F [I-A-6]	2.94	–	100	–	100
Cc1cc(C)c([S+]([O-])CC(F)F)cc1-n1cnc(C(F)(F)C(F)(F)Cl)n1 (stereo not shown) [I-A-12]	3.02	–	100	100	100
Cc1cc(C)c(-n2cnc(C(F)(F)C(F)(F)F)n2)cc1SCC(C)C [I-A-34]	5.58	–	100	–	–
Cc1ccc(-n2cnc(C(F)(F)C(F)(F)F)n2)c(C)c1 [IV-A-5]	3.78	–	–	–	–

Structure (SMILES)	chromatographic logP [1]	pest or weed control at 500 g/ha [2] [%]	pest or weed control at 100 g/ha [2] [%]	pest or weed control at 0.02 mg (Boophilus microplus) [%]	pest or weed control at 500 g/ha [3] [%]
Cc1ccc(NNC(=O)C(F)(F)C(F)(F)Cl)c(C)c1 [V-1]	2.96	90	–	–	–
Cc1ccc(-n2cnc(C(F)F)n2)c(Cl)c1 [IV-A-4]	2.46	–	–	–	–
Cc1ccc(-n2cnc(C(F)F)n2)cc1 [IV-A-7]	2.26	–	–	–	–
Cc1cc(F)c(-n2cnc(C(F)F)n2)cc1SSc1cc(-n2cnc(C(F)F)n2)c(F)cc1C [II-A-2]	4.33	–	–	–	–
Cc1cc(C)c(-n2cnc(C(F)F)n2)cc1SSc1cc(-n2cnc(C(F)F)n2)c(C)cc1C [II-A-1, 1,1′-[Disulphanediylbis(4,6-dimethylbenzene-3,1-diyl)]bis[3-(difluoromethyl)-1H-1,2,4-triazole]]	4.45	–	–	–	–
Cc1ccc(-n2cnc(C(F)F)n2)c(F)c1 [IV-A-3]	2.31	90	–	–	–
Cc1ccc(-n2cnc(C(F)F)n2)cc1SCC(F)(F)F [I-A-5]	3.24	–	100	100	100
Cc1ccc(-n2cnc(C(F)F)n2)cc1SSc1cc(-n2cnc(C(F)F)n2)ccc1C [II-A-7]	4.19	–	–	–	–
Cc1ccc(NNC(=O)C(F)(F)C(F)F)c(C)c1 [V-3]	2.46	–	–	–	–
Cc1cc(C)c([S+]([O-])CC2CC2)cc1-n1cnc(C(F)(F)C(F)(F)F)n1 (stereo not shown) [I-A-11]	3.11	–	100	100	–
Cc1ccc(NNC(=O)C(F)F)cc1 [V-4]	1.46	–	–	–	–
Cc1cc(C)c(-n2cnc(C(F)(F)C(F)(F)F)n2)cc1SCC(F)(F)F [I-A-28]	4.49	–	100	–	–
Cc1cc(C)c(-n2cnc(C(F)(F)C(F)(F)F)n2)cc1SCC1CC1 [I-A-14]	5.11	–	100	–	–
Cc1cc(C)c([S+]([O-])CC(F)(F)F)cc1-n1cnc(C(F)(F)C(F)(F)F)n1 (stereo not shown) [I-A-10]	3.27	100	–	100	100
Cc1cc(C)c(-n2cnc(C(F)(F)C(F)(F)Cl)n2)cc1SSc1cc(-n2cnc(C(F)(F)C(F)(F)Cl)n2)c(C)cc1C [II-A-6]	6.62	–	–	–	–
Cc1ccc(N/N=C(\N)C(F)F)c(Cl)c1 [X-1]	2.5	–	–	–	–

More lines, main results first:

chromatographic logP [1]	Structure (SMILES)	pest or weed control at 500 g/ha [2] [%]	pest or weed control at 100 g/ha [2] [%]	pest or weed control at 0.02 mg (Boophilus microplus) [%]	pest or weed control at 500 g/ha [3] [%]
1.96	Cc1cc(F)c(-n2cnc(C(F)F)n2)cc1[S+]([O-])CC1CC1 (stereo not shown) [I-A-29]	100	–	–	–
3.86	Cc1cc(C)c(-n2cnc(C(F)F)n2)cc1SCC(F)(F)C(F)(F)F [I-A-37]	–	100	–	–
2.43	Cc1ccc(-n2cnc(C(F)F)n2)c(C)c1 [IV-A-2, 3-(Difluoromethyl)-1-(2,4-dimethylphenyl)-1H-1,2,4-triazole]	80	–	–	–
2.35	Cc1cc(C)c([S+]([O-])CC(F)(F)C(F)F)cc1-n1cnc(C(F)F)n1 (stereo not shown) [I-A-32]	–	100	–	–
2.05	Cc1cc(C)c([S+]([O-])CC2CC2)cc1-n1cnc(C(F)F)n1 (stereo not shown) [I-A-33]	100	–	–	–
3.68	Cc1cc(C)c(-n2cnc(C(F)F)n2)cc1SCCC(F)(F)F [I-A-36]	–	100	100	–
1.4	Cc1cc(F)c(-n2cnc(C(F)F)n2)cc1[S+]([O-])CC#N (stereo not shown) [I-A-26]	100	–	–	–
1.49	Cc1cc(C)c([S+]([O-])CC#N)cc1-n1cnc(C(F)F)n1 (stereo not shown) [I-A-25]	100	–	–	–
3.01	CSc1cc(-n2cnc(C(F)F)n2)c(C)cc1C [I-A-18]	100	–	–	–
2.95	Cc1cc(C)c([S+]([O-])CC(F)F)cc1-n1cnc(C(F)(F)C(F)(F)F)n1 (stereo not shown) [I-A-8]	–	100	100	–
1.46	Cc1cc(C)c([S+](C)[O-])cc1-n1cnc(C(F)F)n1 (stereo not shown) [I-A-21]	80	–	–	–
2.72	Cc1cc(C)c([S+]([O-])CC(F)(F)C(F)(F)F)cc1-n1cnc(C(F)F)n1 (stereo not shown) [I-A-35]	–	100	–	–
2.47	Cc1cc(C)c(-n2cnc(C(F)F)n2)cc1SCC#N [I-A-20]	100	–	–	–
1.9	Cc1cc(C)c([S+]([O-])CC(F)F)cc1-n1cnc(C(F)F)n1 (stereo not shown) [I-A-3]	–	100	100	–
1.81	Cc1cc(F)c(-n2cnc(C(F)F)n2)cc1[S+]([O-])CC(F)F (stereo not shown) [I-A-23]	100	–	–	100
3.85	Cc1cc(C)c(-n2cnc(C(F)F)n2)cc1SCC1CC1 [I-A-13]	–	100	–	–
2.28	Cc1cc(C)c([S+]([O-])CCC(F)(F)F)cc1-n1cnc(C(F)F)n1 (stereo not shown) [I-A-17]	–	100	100	–
2.93	CSc1cc(-n2cnc(C(F)F)n2)c(F)cc1C [I-A-38]	100	–	–	–
3.37	Cc1cc(C)c(-n2cnc(C(F)F)n2)cc1SCC(F)(F)C(F)F [I-A-19]	–	100	–	–
1.37	Cc1cc(F)c(-n2cnc(C(F)F)n2)cc1[S+](C)[O-] (stereo not shown) [I-A-22]	80	–	–	–
